These results are taken from patent US8642770B2, “Indole derivative” (Takeda Pharmaceutical Company Limited, priority 2010, dated 2014).

In the case of `Cc1c(CNCC2CCOCC2)n(C)c2ccc(NC(=O)c3ccc(OCC4CC4)cc3)cc12` [Example 40, 4-(cyclopropylmethoxy)-N-(1,3-dimethyl-2-{[(tetrahydro-2H-pyran-4-ylmethyl)amino]methyl}-1H-indol-5-yl)benzamide], the melting point (in general, the temperature, or range, at which the solid turns liquid) was in the range of 176 to 177 °C.
`Cc1c(CNCC(C)(C)C)n(C)c2ccc(NC(=O)c3ccc(OCC4CC4)cc3)cc12` [Example 41, 4-(cyclopropylmethoxy)-N-(2-{[(2,2-dimethylpropyl)amino]methyl}-1,3-dimethyl-1H-indol-5-yl)benzamide] returned a melting point of 169 to 170 °C.
With `Cc1c(CN[C@H]2CC[C@](C)(O)CC2)n(C)c2ccc(NC(=O)c3ccc(OCC4CC4)cc3)cc12` [Example 42, 4-(cyclopropylmethoxy)-N-(2-{[(trans-4-hydroxy-4-methylcyclohexyl)amino]methyl}-1,3-dimethyl-1H-indol-5-yl)benzamide] the figure was 191 °C; with `Cc1c(NC(=O)c2ccc(OCC3CC3)cc2)ccc2[nH]c(CNCC3CCOCC3)cc12` [Example 43, 4-(cyclopropylmethoxy)-N-(4-methyl-2-{[(tetrahydro-2H-pyran-4-ylmethyl)amino]methyl}-1H-indol-5-yl)benzamide], 181 to 182 °C; with `Cc1c(NC(=O)c2ccc(OCC3CC3)cc2)ccc2[nH]c(CNCC(C)(C)O)cc12` [Example 44, 4-(cyclopropylmethoxy)-N-(2-{[(2-hydroxy-2-methylpropyl)amino]methyl}-4-methyl-1H-indol-5-yl)benzamide], 186 °C.
The compound `Cc1c(NC(=O)c2ccc(OCC3CC3)cc2)ccc2[nH]c(CNC3CCCC3)cc12` [Example 45, N-{2-[(cyclopentylamino)methyl]-4-methyl-1H-indol-5-yl}-4-(cyclopropylmethoxy)benzamide] registered a melting point of 207 to 208 °C.
The figure for `Cc1c(NC(=O)c2ccc(OC[C@@H]3CCCO3)cc2)ccc2[nH]c(CNCC3CCOCC3)cc12` [Example 47, N-(4-methyl-2-{[(tetrahydro-2H-pyran-4-ylmethyl)amino]methyl}-1H-indol-5-yl)-4-[(2S)-tetrahydrofuran-2-ylmethoxy]benzamide] is 166 to 167 °C.
Turning to `Cc1c(NC(=O)c2ccc(OC[C@@H]3CCCO3)cc2)ccc2[nH]c(CNCC(C)(C)O)cc12` [Example 48, N-(2-{[(2-hydroxy-2-methylpropyl)amino]methyl}-4-methyl-1H-indol-5-yl)-4-[(2S)-tetrahydrofuran-2-ylmethoxy]benzamide], the melting point was 169 to 170 °C.
Compound `Cc1c(NC(=O)c2ccc(OC[C@@H]3CCCO3)cc2)ccc2[nH]c(CNC3CCCC3)cc12` [Example 49, N-{2-[(cyclopentylamino)methyl]-4-methyl-1H-indol-5-yl}-4-[(2S)-tetrahydrofuran-2-ylmethoxy]benzamide] returned a melting point of 191 to 192 °C.
In turn, `Cc1c(NC(=O)c2ccc(OC[C@@H]3CCCO3)cc2)ccc2c1cc(CNCC(C)(C)O)n2C` [Example 52, N-(2-{[(2-hydroxy-2-methylpropyl)amino]methyl}-1,4-dimethyl-1H-indol-5-yl)-4-[(2S)-tetrahydrofuran-2-ylmethoxy]benzamide] returned a melting point of 160 to 162 °C.
In turn, `Cc1c(NC(=O)c2ccc(OC[C@@H]3CCCO3)cc2)ccc2c1cc(CNCC(C)C)n2C` [Example 54, N-(1,4-dimethyl-2-{[(2-methylpropyl)amino]methyl}-1H-indol-5-yl)-4-[(2S)-tetrahydrofuran-2-ylmethoxy]benzamide] registered a melting point of 162 °C.
As for `Cc1c(NC(=O)c2ccc(OC[C@@H]3CCCO3)cc2)ccc2c1cc(CNC1CCCC1)n2C` [Example 56, N-{2-[(cyclopentylamino)methyl]-1,4-dimethyl-1H-indol-5-yl}-4-[(2S)-tetrahydrofuran-2-ylmethoxy]benzamide], the melting point came to 189 °C.
`CCCNCc1cc2c(C)c(NC(=O)c3ccc(OC[C@@H]4CCCO4)cc3)ccc2n1C` [Example 57, N-{1,4-dimethyl-2-[(propylamino)methyl]-1H-indol-5-yl}-4-[(2S)-tetrahydrofuran-2-ylmethoxy]benzamide] had a melting point of 225 °C.
The figure for `Cc1c(NC(=O)c2ccc(OC[C@@H]3CCCO3)cc2)ccc2c1cc(CN1CCC(C)(O)CC1)n2C` [Example 58, N-{2-[(4-hydroxy-4-methylpiperidin-1-yl)methyl]-1,4-dimethyl-1H-indol-5-yl}-4-[(2S)-tetrahydrofuran-2-ylmethoxy]benzamide] is 210 °C.
With `Cc1c(NC(=O)c2ccc(OC[C@@H]3CCCO3)cc2F)ccc2c1cc(CN[C@H]1CC[C@](C)(O)CC1)n2C` [Example 59, 2-fluoro-N-(2-{[(trans-4-hydroxy-4-methylcyclohexyl)amino]methyl}-1,4-dimethyl-1H-indol-5-yl)-4-[(2S)-tetrahydrofuran-2-ylmethoxy]benzamide] the figure was 124 °C.
The figure for `Cc1c(NC(=O)c2ccc(OC[C@@H]3CCCO3)cc2F)ccc2c1cc(CNCC(C)C)n2C` [Example 61, N-(1,4-dimethyl-2-{[(2-methylpropyl)amino]methyl}-1H-indol-5-yl)-2-fluoro-4-[(2S)-tetrahydrofuran-2-ylmethoxy]benzamide] is 104 to 105 °C.
Consider `Cc1c(NC(=O)c2ccc(OC[C@@H]3CCCO3)cc2F)ccc2c1cc(CNCC1CCOCC1)n2C` [Example 62, N-(1,4-dimethyl-2-{[(tetrahydro-2H-pyran-4-ylmethyl)amino]methyl}-1H-indol-5-yl)-2-fluoro-4-[(2S)-tetrahydrofuran-2-ylmethoxy]benzamide], for which the melting point was found to be 149 °C.
`Cc1c(NC(=O)c2ccc(OCC3CC3)cc2)ccc2cc(CNCC(C)C)[nH]c12` [Example 64, 4-(cyclopropylmethoxy)-N-(7-methyl-2-{[(2-methylpropyl)amino]methyl}-1H-indol-6-yl)benzamide]: the melting point lay within 176 to 177 °C.
`Cc1c(NC(=O)c2ccc(OCC3CC3)cc2)ccc2cc(CNCC(C)(C)C)[nH]c12` [Example 65, 4-(cyclopropylmethoxy)-N-(2-{[(2,2-dimethylpropyl)amino]methyl}-7-methyl-1H-indol-6-yl)benzamide] returned a melting point of 199 °C.
With `Cc1c(NC(=O)c2ccc(OCC3CC3)cc2)ccc2cc(CNCC3CCOCC3)[nH]c12` [Example 66, 4-(cyclopropylmethoxy)-N-(7-methyl-2-{[(tetrahydro-2H-pyran-4-ylmethyl)amino]methyl}-1H-indol-6-yl)benzamide] the figure was 167 to 168 °C; with `Cc1c(NC(=O)c2ccc(OCC3CC3)cc2)ccc2cc(CN3CCC(C)(O)CC3)[nH]c12` [Example 68, 4-(cyclopropylmethoxy)-N-{2-[(4-hydroxy-4-methylpiperidin-1-yl)methyl]-7-methyl-1H-indol-6-yl}benzamide], 195 °C; with `Cc1c(NC(=O)c2ccc(OC[C@@H]3CCCO3)cc2)ccc2cc(CNCC(C)(C)C)[nH]c12` [Example 69, N-(2-{[(2,2-dimethylpropyl)amino]methyl}-7-methyl-1H-indol-6-yl)-4-[(2S)-tetrahydrofuran-2-ylmethoxy]benzamide], 168 °C.
`Cc1c(NC(=O)c2ccc(OC[C@@H]3CCCO3)cc2)ccc2cc(CNCC(C)C)[nH]c12` [Example 72, N-(7-methyl-2-{[(2-methylpropyl)amino]methyl}-1H-indol-6-yl)-4-[(2S)-tetrahydrofuran-2-ylmethoxy]benzamide] had a melting point of 159 °C.
As to `Cc1c(NC(=O)c2ccc(OC[C@@H]3CCCO3)cc2)ccc2cc(CNC3CCCC3)[nH]c12` [Example 73, N-{2-[(cyclopentylamino)methyl]-7-methyl-1H-indol-6-yl}-4-[(2S)-tetrahydrofuran-2-ylmethoxy]benzamide], the melting point lay in the range of 159 to 163 °C.
In turn, `Cc1c(NC(=O)c2ccc(OC[C@@H]3CCCO3)cc2F)ccc2cc(CNCC(C)(C)O)[nH]c12` [Example 76, 2-fluoro-N-(2-{[(2-hydroxy-2-methylpropyl)amino]methyl}-7-methyl-1H-indol-6-yl)-4-[(2S)-tetrahydrofuran-2-ylmethoxy]benzamide] registered a melting point of 148 to 149 °C.
`Cc1c(NC(=O)c2ccc(OC[C@@H]3CCCO3)cc2F)ccc2cc(CN[C@H]3CC[C@](C)(O)CC3)[nH]c12` [Example 77, 2-fluoro-N-(2-{[(trans-4-hydroxy-4-methylcyclohexyl)amino]methyl}-7-methyl-1H-indol-6-yl)-4-[(2S)-tetrahydrofuran-2-ylmethoxy]benzamide] gave a melting point of 152 to 153 °C.
The figure for `Cc1c(NC(=O)c2ccc(OCC3CC3)cc2)ccc2cc(CN[C@H]3CC[C@](C)(O)CC3)n(C)c12` [Example 79, 4-(cyclopropylmethoxy)-N-(2-{[(trans-4-hydroxy-4-methylcyclohexyl)amino]methyl}-1,7-dimethyl-1H-indol-6-yl)benzamide] is 167 °C; for `Cc1c(NC(=O)c2ccc(OCC3CC3)cc2)ccc2cc(CN3CCC(C)(O)CC3)n(C)c12` [Example 80, 4-(cyclopropylmethoxy)-N-{2-[(4-hydroxy-4-methylpiperidin-1-yl)methyl]-1,7-dimethyl-1H-indol-6-yl}benzamide] it is 152 to 155 °C.
In turn, `Cc1c(NC(=O)c2ccc(OC[C@@H]3CCCO3)cc2)ccc2cc(CNCC(C)(C)C)n(C)c12` [Example 81, N-(2-{[(2,2-dimethylpropyl)amino]methyl}-1,7-dimethyl-1H-indol-6-yl)-4-[(2S)-tetrahydrofuran-2-ylmethoxy]benzamide] yielded a melting point of 201 °C.
`Cc1c(NC(=O)c2ccc(OC[C@@H]3CCCO3)cc2)ccc2cc(CNCC(C)(C)O)n(C)c12` [Example 82, N-(2-{[(2-hydroxy-2-methylpropyl)amino]methyl}-1,7-dimethyl-1H-indol-6-yl)-4-[(2S)-tetrahydrofuran-2-ylmethoxy]benzamide] returned a melting point of 197 to 200 °C.
`Cc1c(NC(=O)c2ccc(OC[C@@H]3CCCO3)cc2)ccc2cc(CNCC(C)C)n(C)c12` [Example 85, N-(1,7-dimethyl-2-{[(2-methylpropyl)amino]methyl}-1H-indol-6-yl)-4-[(2S)-tetrahydrofuran-2-ylmethoxy]benzamide] returned a melting point of 183 °C.
